This is an account of results in paper PMC6072853 (Frontiers in Pharmacology, 2018).

One experiment has as its system SiHa. The experiment is described as follows: MTT antiproliferative assay, SiHa. It is filed as cell-based, human. Conditions: Homo sapiens, 72 h, read-out: Growth inhibition (%) ± SEM. The source says:
(§1) Gynecological cancer cell lines, including ovarian (A2780), cervical (HeLa), and breast cancer cell lines (MCF7, T47D, MDA-MB-231, and MDA-MB-361) were purchased from the European Collection of Authenticated Cell Cultures (ECACC, Salisbury, United Kingdom). Additional cervical cell lines (SiHa and C33A) and a non-cancerous immortalized, mammary gland epithelial cell line (hTERT-HME1) were purchased from LGC Standards GmbH (Wesel, Germany). Non-cancerous fibroblast cells (MRC-5) were also obtained from the ECACC. All cells were cultured in minimal essential medium supplemented with 10% fetal bovine serum, 1% non-essential amino acids, and 1% antibiotic-antimycotic mixture, in humidified air containing 5% CO2 at 37°C. Immortalized hTERT-HME1 cells were maintained in serum-free mammary epithelial cell growth medium (MEGM) supplemented with insulin, human epidermal growth factor (hEGF), hydrocortisone, bovine pituitary extract, and an antibiotic-antimycotic mixture. All the medium and supplements were purchased from Lonza Group Ltd. (Basel, Switzerland).
(§2) The antiproliferative properties of the compounds were assessed by an MTT assay ([Mosmann, 1983]). Cells were seeded onto 96-well microplates at a density of 10,000 cells/well (MDA-MB-361 and C33A) or 5,000 cells/well (all other cell lines). After an overnight incubation, fresh medium containing the test compounds (at a concentration of 10 or 30 μM) was added. After incubation for 72 h at 37°C in humidified air, [3-(4,5-dimethylthiazol-2-yl)-2,5-diphenyltetrazolium bromide] (MTT) solution (5 mg/mL) was added. Purple formazan crystals were formed by the living cells during a 4 h contact period, which were assayed by spectrophotometry after having been dissolved in 100 μL DMSO. Untreated cells served as control, and cisplatin (CIS) (Ebewe Pharma GmbH, Unterach, Austria) was used as a reference compound. […] Two independent measurements were performed with five parallel wells. To present preliminary data concerning tumor selectivity of the potent compounds, the procedure was repeated on MRC-5 fibroblast and hTERT-HME1 immortalized mammary gland epithelial cells under the same experimental conditions.
(In general: Formazan colour is commonly taken as a measure of viable cells.)

Another experiment concerns C33A. The experiment is described as follows: MTT antiproliferative assay, C33A. It is filed as cell-based, human. Conditions: Homo sapiens, C-33-A, 72 h, read-out: Growth inhibition (%) ± SEM.
Excerpt: as §1, §2

In another experiment the test system is A2780. The experiment is described as follows: MTT antiproliferative assay, A2780. It is filed as cell-based, human. Particulars: Homo sapiens, 72 h, read-out: Growth inhibition (%) ± SEM; for inhibition at 10 µM: A2780, 10 μM; for inhibition at 30 µM: A2780, 30 μM.
Excerpt: as §1, §2

Another experiment relates to MDA-MB-231. As to the kind of experiment: MTT antiproliferative assay, MDA-MB-231. It is filed as cell-based, human. Conditions: Homo sapiens, 72 h, read-out: Growth inhibition (%) ± SEM; for inhibition at 10 µM: MDA-MB-231, 10 μM; for inhibition at 30 µM: MDA-MB-231, 30 μM.
Excerpt: as §1, §2

The test system of the next experiment is MDA-MB-361. As to the kind of experiment: MTT antiproliferative assay, MDA-MB-361. It is filed as cell-based, human. Conditions: Homo sapiens, 72 h, read-out: Growth inhibition (%) ± SEM; for inhibition at 10 µM: MDA-MB-361, 10 μM; for inhibition at 30 µM: MDA-MB-361, 30 μM.
Excerpt: as §1, §2

A further experiment concerns T47D. The experiment is described as follows: MTT antiproliferative assay, T47D. It is filed as cell-based, human. Particulars: Homo sapiens, 72 h, read-out: Growth inhibition (%) ± SEM.
Excerpt: as §1, §2

In the next experiment the test system is MRC-5. As to the kind of experiment: MTT assay, non-cancerous fibroblasts MRC-5. It is filed as cell-based, human. Conditions: Homo sapiens, MRC5, 72 h, read-out: Growth inhibition (%) ± SEM; for inhibition at 10 µM: MRC-5, 10 μM; for inhibition at 30 µM: MRC-5, 30 μM.
Excerpt: as §1, §2

The subject of another experiment is hTERT-HME1. As to the kind of experiment: MTT assay, immortalized mammary gland epithelial cells hTERT-HME1. It is filed as cell-based, human. Conditions: Homo sapiens; for inhibition at 10 µM: hTERT-HME1, 10 μM; for inhibition at 10 µM / inhibition at 30 µM: 72 h, read-out: Growth inhibition (%) ± SEM; for inhibition at 30 µM: hTERT-HME1, 30 μM.
Excerpt: as §1, §2

The subject of experiment [1] is HeLa cells. As to the kind of experiment: Lactate dehydrogenase (LDH) cytotoxicity assay. Conditions: 24 h. It is filed as cell-based, human. Here is the method:
The direct cytotoxic effects of the test agents were determined by a lactate dehydrogenase (LDH) assay. Cells were seeded onto 96-well microplates at a density of 5,000 cells/well and were incubated overnight, after which the medium containing the test compounds at proper concentrations was added. After incubation for 24 h, the activity of LDH released by the treated cells was determined by a commercially available colorimetric kit according to the manufacturer’s instructions (Hoffmann-La Roche Ltd., Basel, Switzerland). Untreated cells served as control, while detergent Triton X-100 and CIS were used as reference agents.

Experiment [2] concerns HeLa cells. The experiment is described as follows: Fluorescent double staining (Hoechst 33258 / propidium iodide) morphology. It is filed as cell-based, human. Conditions: 24 h, 1.0, 3.0 or 5.0 μM. Here is the method: Fluorescent double staining was performed in order to detect apoptosis induction and morphological changes using fluorescent microscopy. HeLa cells were seeded into a 96-well plate at the density of 3,000Ȓ5,000 cells per well. After an overnight incubation, the cells were treated with various concentrations of the test compounds for 24 h. The treated cells were then incubated with a fluorescent staining solution (containing Hoechst 33258 and propidium iodide, 500 and 300 μg/mL, respectively) for an hour. After staining, the cells were analyzed using a fluorescent microscope (Nikon ECLIPSE 146 TS100, Nikon Instruments Europe, Amstelveen, Netherlands) equipped with appropriate optical filters. For all different conditions, at least six fields were recorded with an attached QCapture CCD camera. This way cells with an intact, apoptotic or necrotic morphology can be distinguished based on their different nuclear morphological appearance and distinct membrane integrity.

Another experiment has as its system tubulin. As to the kind of experiment: Tubulin polymerization assay (cell-free). It is filed as biochemical. Particulars: cell-free system, compared to untreated control. As to the method: In order to determine the direct action of the test compounds on the microtubular system, an in vitro tubulin polymerization assay was performed using a commercially available kit (Cytoskeleton Inc., Denver, CO, United States) in accordance with the provider’s instructions. The assay reactions were performed on a pre-warmed (37°C), UV-transparent 96-well microplate. Ten microliters of the test solutions were placed on the wells supplemented with 2 mM MgCl2, 0.5 mM ethylene glycol tetraacetic acid (EGTA), 1 mM guanosine triphosphate (GTP) and 10.2% glycerol. Ten microliters of general tubulin buffer was used as untreated control, and paclitaxel (PAC) served as the reference compound. The polymerization reaction was initiated by adding 100 μL of 3.0 mg/mL tubulin in 80 mM PIPES, pH 6.9, to each sample. Absorbance of the samples was measured per minute, at 340 nm, using a 60-min kinetic measurement protocol. Each sample was prepared in two parallels. To characterize the process, polymerization curves were fitted to the measured data. The highest difference between the absorbances measured at two consecutive time points was regarded as Vmax (Δabsorbance/min) for the tested compound. A clinically applied reference agent, PAC was used at a relatively high concentration (10 μM) as recommended by the manufacturer. […]. […]

By inhibition is commonly meant the change of the read-out against control, counted positive when it falls. By IC50 is commonly meant the point on the concentration scale where inhibition reaches its midpoint.

SMILES strings stand for the structures.

On to `C[C@]12CC[C@H]3[C@@H](CCC4=CC(=O)CC[C@@H]43)[C@@H]1CC[C@@H]2O` [Compound 1, 19-nortestosterone, reference compound], for which the inhibition at 10 µM with SiHa, with C33A, in the experiment on A2780, in the experiment with MDA-MB-231, in the experiment with MDA-MB-361 and in the experiment with T47D was < 20% each time. The inhibition at 10 µM in the experiment with MRC-5 is 5.4 ± 1.2%; in the experiment with hTERT-HME1, 16.9 ± 1.2%. The inhibition at 30 µM is 20.7 ± 2.6% in the experiment on SiHa; 25.2 ± 1.7% in the experiment with C33A; < 20% in the experiment with A2780; 21.4 ± 1.2% with MDA-MB-231; < 20% in the experiment with MDA-MB-361; < 20% with T47D. In addition, the inhibition at 30 µM with MRC-5 amounted to 11.3 ± 0.5%; with hTERT-HME1, 37.1%. Also, the LDH release entry in the experiment on HeLa cells [1] (1.5 μM) is on record as “substantial LDH release”. Also, the “apoptotic and necrotic cell populations (morphology)” value in the experiment on HeLa cells [2] is “substantial and concentration-dependent increase in both the apoptotic and necrotic cell populations”. The “effect on tubulin polymerization” value with tubulin is “significant acceleration of tubulin polymerization”.

For `C[C@]12CC[C@H]3[C@@H](CCC4=CC(=O)CC[C@@H]43)[C@@H]1CC[C@H]2Cl` [Compound 3], the inhibition at 10 µM in the experiment on SiHa, with C33A, in the experiment with A2780, in the experiment on MDA-MB-231, in the experiment with MDA-MB-361 and in the experiment on T47D was < 20% throughout. For the same molecule, the inhibition at 10 µM in the experiment with MRC-5 came to 4.3 ± 3.7%; with hTERT-HME1, 76.2 ± 0.5%. In addition, the inhibition at 30 µM in the experiment with SiHa was 26 ± 2.3%; in the experiment on C33A, 61.7 ± 1.7%; in the experiment on A2780, 32.7 ± 1%; in the experiment on MDA-MB-231 it was < 20%; with MDA-MB-361, 21.8 ± 2.5%; in the experiment on T47D, < 20%. Besides, the inhibition at 30 µM in the experiment with MRC-5 came to 8 ± 2.3%; in the experiment with hTERT-HME1 it was 99.9 ± 0.1%. Also, the 50% inhibitory concentration (IC50) with hTERT-HME1 (hTERT-HME1, 72 h, read-out: calculated IC50 value) was 4.63 µM. In the experiment on HeLa cells [1] (3.0 or 5.0 μM), the LDH release entry is reported as “significant”. For the same molecule, in the experiment on HeLa cells [2], the “apoptotic and necrotic cell populations (morphology)” value was “substantial and concentration-dependent increase in both the apoptotic and necrotic cell populations”. The “effect on tubulin polymerization” value in the experiment with tubulin is “significant acceleration of tubulin polymerization”.
